From US20230295140A1, “INHIBITORS OF VAP-1” (Acucela Inc., priority 2021, published 2023)

What was measured:
Type in all cases: biochemical
Conditions in all cases: class symbols, ranges defined in μM
[1] = target: rhMAO-B (Homo sapiens (Human), UniProt P27338); assay: MAO-Glo assay, MAO-B inhibition
Summary of the method: (§1)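 Recombinant human MAO-A or MAO-B with luciferin-derivative substrate (10 μM for MAO-A, […]) in 100 mM HEPES pH 7.5, 5% glycerol, 1 h at room temperature; luminescence read 20 min after detection reagent.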

[2] = target: rhVAP-1 (Homo sapiens (Human), UniProt Q16853); assay: VAP-1 fluorometric assay (Amplex Red/HRP, benzylamine substrate)
Summary of the method: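 Recombinant human VAP-1 oxidizes 50 μM benzylamine in 10 mM NaHCO3 pH 7.4 containing 0.05 mM Amplex Red and 0.5 U HRP, with inhibitor in 0.5% DMSO. After 30 min at 37 °C in the dark, resorufin fluorescence is read […], calibrated against an H2O2 standard curve.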

[3] = target: rhMAO-A (Homo sapiens (Human), UniProt P21397); assay: MAO-Glo assay, MAO-A inhibition
Summary of the method: as §1

Sequence of rhMAO-A (P21397 whole entry): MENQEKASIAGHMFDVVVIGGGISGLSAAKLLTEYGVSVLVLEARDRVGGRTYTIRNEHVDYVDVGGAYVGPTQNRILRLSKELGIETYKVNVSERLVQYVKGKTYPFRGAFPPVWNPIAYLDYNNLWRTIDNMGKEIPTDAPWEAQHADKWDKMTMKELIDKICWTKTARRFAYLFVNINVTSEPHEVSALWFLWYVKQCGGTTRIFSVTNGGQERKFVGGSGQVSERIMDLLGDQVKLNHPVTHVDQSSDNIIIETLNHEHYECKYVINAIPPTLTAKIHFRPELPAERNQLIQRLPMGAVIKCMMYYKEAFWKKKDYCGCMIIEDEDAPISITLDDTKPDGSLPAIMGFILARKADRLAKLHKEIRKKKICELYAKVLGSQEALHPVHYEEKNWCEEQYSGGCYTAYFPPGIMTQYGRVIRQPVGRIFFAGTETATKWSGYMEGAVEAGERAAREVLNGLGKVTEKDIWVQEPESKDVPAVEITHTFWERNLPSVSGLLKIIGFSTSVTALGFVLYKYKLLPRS
Sequence of rhVAP-1 (Q16853 whole entry): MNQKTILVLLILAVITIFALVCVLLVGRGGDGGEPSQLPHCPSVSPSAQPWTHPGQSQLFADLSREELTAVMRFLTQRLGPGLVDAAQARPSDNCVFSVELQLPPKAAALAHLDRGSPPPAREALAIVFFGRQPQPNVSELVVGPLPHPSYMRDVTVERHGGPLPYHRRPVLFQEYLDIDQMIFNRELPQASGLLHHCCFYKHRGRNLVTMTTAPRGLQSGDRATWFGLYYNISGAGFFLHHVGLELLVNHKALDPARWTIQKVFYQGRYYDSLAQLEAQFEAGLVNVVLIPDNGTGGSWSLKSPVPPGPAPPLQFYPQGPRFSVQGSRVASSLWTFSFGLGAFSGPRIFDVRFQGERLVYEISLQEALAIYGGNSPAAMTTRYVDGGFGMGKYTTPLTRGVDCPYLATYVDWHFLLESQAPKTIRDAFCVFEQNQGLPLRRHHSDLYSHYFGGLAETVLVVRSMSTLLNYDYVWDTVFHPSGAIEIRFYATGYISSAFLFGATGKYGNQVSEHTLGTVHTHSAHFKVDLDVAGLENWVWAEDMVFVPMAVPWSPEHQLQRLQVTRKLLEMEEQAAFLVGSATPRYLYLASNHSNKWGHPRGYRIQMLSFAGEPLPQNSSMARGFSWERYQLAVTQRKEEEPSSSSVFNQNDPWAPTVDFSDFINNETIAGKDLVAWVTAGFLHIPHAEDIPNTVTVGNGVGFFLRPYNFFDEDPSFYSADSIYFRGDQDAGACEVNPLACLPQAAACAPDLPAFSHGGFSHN
Sequence of rhMAO-B (P27338 whole entry): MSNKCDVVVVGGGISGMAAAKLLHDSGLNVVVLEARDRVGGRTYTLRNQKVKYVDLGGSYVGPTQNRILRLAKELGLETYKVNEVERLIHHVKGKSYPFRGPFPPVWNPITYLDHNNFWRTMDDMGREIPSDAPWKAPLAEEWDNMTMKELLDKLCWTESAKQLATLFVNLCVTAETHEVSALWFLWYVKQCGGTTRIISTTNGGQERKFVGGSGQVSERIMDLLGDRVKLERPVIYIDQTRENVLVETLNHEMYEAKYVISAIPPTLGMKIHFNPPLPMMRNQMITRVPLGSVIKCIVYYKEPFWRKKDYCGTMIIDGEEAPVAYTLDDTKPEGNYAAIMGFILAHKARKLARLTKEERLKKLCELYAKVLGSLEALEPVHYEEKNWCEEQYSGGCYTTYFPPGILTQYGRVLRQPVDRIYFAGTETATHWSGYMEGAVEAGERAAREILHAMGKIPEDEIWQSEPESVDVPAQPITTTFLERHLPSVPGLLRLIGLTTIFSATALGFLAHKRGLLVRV

IC50 [1]: 10 to 30 µM | IC50 [2]: 0.1 to 1 µM | IC50 [3]: 10 to 30 µM
Structure (SMILES): CCCCc1nc2ccc(C(=O)NC/C(=C/F)CN)cc2o1 [Example 40, (E)-N-(2-(aminomethyl)-3-fluoroallyl)-2-butylbenzo[d]oxazole-6-carboxamide 4-methylbenzenesulfonate]
